Tests used:
[1] = biological target: T1, human sphingosine-1-phosphate receptor 1 (S1P1) (Homo sapiens, UniProt P21453); test: β-Arrestin2 recruitment assay (PathHunter), S1P1 CHO-K1 cells; assay type: cell-based; settings: for Emax: efficacy normalized to maximum efficacy of fingolimod, read-out: hS1P1 B-arrestin2 SPAN; for EC50: β-arrestin2 recruitment, read-out: hS1P1 B-arrestin2 pEC50 (converted)
Protocol: Stable clonal Chinese hamster ovary K1 (CHO-K1) cells co-expressing EA-β-arrestin2 and the human sphingosine-1-phosphate receptor 1 (NM_001400, S1P1) with a C-terminal Prolink™ tag were purchased from DiscoverX corporation (Cat #: 93-0207C2).
Cell lines were cultured in AssayComplete™ Media 6 (DiscoverX Corporation, Cat #: 920018GF2) at 37° C. and 5% CO2 in a humidified CO2 and temperature-controlled incubator. To begin assay plating, cells were washed with Dulbecco's phosphate buffered saline (CellGro, Cat #: 21-031-CV) and lifted from the culturing flask by incubation (37° C., 5 min) with CellStripper (Cellgro, Cat #: 25-056-CI). […] Plated cells were incubated overnight at 37° C. and 5% CO2 in a humidified CO2 and temperature-controlled incubator.
Agonist-promoted β-arrestin2 recruitment to the sphingosine-1-phosphate 1 receptor was determined using the β-arrestin PathHunter® Detection kit (DiscoverX Corporation, Cat #: 93-0001). […] In cells that stably express these fusion proteins, stimulation with a cognate agonist results in the interaction of β-arrestin2 and the Prolink™-tagged GPCR. This allows the complementation of the two β-galactosidase fragments and results in the formation of a functional enzyme with β-galactosidase activity. […] Following a 60 minute incubation at 37° C. and 5% CO2 in a humidified CO2 and temperature-controlled incubator, the components of the β-arrestin PathHunter® Detection kit were added as per the manufacturer's instructions. After an hour incubation at room temperature, plates were analyzed by a BMG PheraStar microplate reader.
These values are normalized to fingolimod, a known agonist of the sphingosine-1-phosphate 1 receptor.
Target sequence in this assay (P21453 whole entry): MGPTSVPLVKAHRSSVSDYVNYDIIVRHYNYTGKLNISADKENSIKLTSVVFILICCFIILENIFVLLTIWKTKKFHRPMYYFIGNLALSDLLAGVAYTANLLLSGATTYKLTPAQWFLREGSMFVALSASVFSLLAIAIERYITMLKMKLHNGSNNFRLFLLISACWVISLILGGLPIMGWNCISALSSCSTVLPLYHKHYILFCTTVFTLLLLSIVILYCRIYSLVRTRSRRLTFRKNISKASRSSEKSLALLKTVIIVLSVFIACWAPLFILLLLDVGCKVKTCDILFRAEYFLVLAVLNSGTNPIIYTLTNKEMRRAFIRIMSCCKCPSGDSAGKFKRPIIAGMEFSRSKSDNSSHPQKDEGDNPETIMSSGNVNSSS
Target sequence in this assay (P32121 whole entry partner): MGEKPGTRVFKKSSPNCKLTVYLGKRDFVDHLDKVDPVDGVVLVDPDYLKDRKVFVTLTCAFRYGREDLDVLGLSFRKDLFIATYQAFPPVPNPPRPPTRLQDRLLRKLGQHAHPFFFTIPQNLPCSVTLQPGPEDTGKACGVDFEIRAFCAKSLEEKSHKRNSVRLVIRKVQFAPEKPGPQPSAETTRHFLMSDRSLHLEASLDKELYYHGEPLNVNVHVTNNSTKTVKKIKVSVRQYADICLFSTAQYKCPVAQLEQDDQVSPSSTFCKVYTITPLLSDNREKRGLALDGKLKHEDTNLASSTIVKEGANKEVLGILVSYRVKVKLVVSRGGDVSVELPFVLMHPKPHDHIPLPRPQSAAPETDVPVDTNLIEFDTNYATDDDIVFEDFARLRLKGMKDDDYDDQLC

[2] = biological target: T1, human sphingosine-1-phosphate receptor 1 (S1P1); test: Inhibition of cAMP production (HTRF cAMP HiRange), S1P1 CHO-K1 cells; assay type: cell-based; settings: for Emax: CHO-K1, efficacy normalized to maximum efficacy of fingolimod, read-out: hS1P1 CAMP SPAN; for EC50: read-out: hS1P1 CAMP pEC50 (converted)
Procedure, shortened: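 CHO-K1 cells co-expressing human S1P1 (C-terminal ProLink tag) and EA-β-arrestin2, plated overnight; after 30 min compound incubation at 37 °C, intracellular cAMP measured by HTRF TR-FRET following 1 h at room temperature. Values normalized to fingolimod.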
Target sequence in this assay (P21453 whole entry): as the sequence (P21453 whole entry) above

[3] = CHO-K1, β-arrestin2 recruitment
[4] = inhibition of cAMP production, potency
[5] = inhibition of cAMP production, S1P1

Structure (SMILES)	Emax [1, 3]	EC50 ([1]; potency)	Emax ([2]; inhibition of cAMP production)	EC50 [2, 4]	Emax ([1]; CHO-K1)	EC50 ([1]; S1P1)	Emax [2]	EC50 [2, 5]
CCC1(CC)CC(=O)c2cc(-c3nc(-c4ccc5c(c4)nnn5C(C)C)no3)ccc2O1 [Compound 305, 2,2-diethyl-6-(3-(1-isopropyl-1H-benzo[d][1,2,3]triazol-5-yl)-1,2,4-oxadiazol-5-yl)chroman-4-one]	< 75%	> 10 µM	> 75%	> 0.316 µM	–	–	–	–
CC(C)c1ccc(-c2nc(-c3ccc4c(c3)nnn4C(C)C)no2)cn1 [Compound 25, 3-(1-isopropyl-1H-benzo[d][1,2,3]triazol-5-yl)-5-(6-isopropyl-pyridin-3-yl)-1,2,4-oxadiazole]	< 75%	> 10 µM	< 75%	> 0.316 µM	–	–	–	–
COc1ccccc1-c1c[nH]c(-c2ccc3c(c2)nnn3C(C)C)c1 [Compound 566, 5-[4-(2-methoxyphenyl)-1H-pyrrol-2-yl]-1-(propan-2-yl)-1H-1,2,3-benzotriazole]	–	–	–	–	< 75%	> 10 µM	< 75%	> 0.316 µM
Oc1ccc(-c2noc(-c3ccc4c(c3)nnn4C3CCCC3)n2)cc1 [Compound 13, 4-[5-(1-cyclopentyl-1H-1,2,3-benzotriazol-5-yl)-1,2,4-oxadiazol-3-yl]phenol]	< 75%	< 10 µM	< 75%	< 0.316 µM	–	–	–	–
CSc1ccccc1-c1nc(-c2ccc3c(c2)nnn3C2CCCC2)no1 [Compound 16, 3-(1-cyclopentyl-1H-benzo[d][1,2,3]triazol-5-yl)-5-(2-(methylthio)phenyl)-1,2,4-oxadiazole]	> 75%	< 10 µM	< 75%	> 0.316 µM	–	–	–	–
CC(C)n1ccc2cc(-c3nc(-c4cccc5c4OCCC5)no3)ccc21 [Compound 327, 3-chroman-8-yl-5-(1-isopropylindol-5-yl)-1,2,4-oxadiazole]	> 75%	< 10 µM	< 75%	> 0.316 µM	–	–	–	–
COc1ccccc1-c1nnc(-c2ccc3c(c2)CCC(=O)N3)o1 [Compound 341, 6-[5-(2-methoxyphenyl)-1,3,4-oxadiazol-2-yl]-1,2,3,4-tetrahydro-quinolin-2-one]	< 75%	> 10 µM	< 75%	> 0.316 µM	–	–	–	–
CCCn1nnc2cc(-c3nc(-c4ccc(C(F)(F)F)c(F)c4)no3)ccc21 [Compound 193, 5-{3-[3-fluoro-4-(trifluoromethyl)phenyl]-1,2,4-oxadiazol-5-yl}-1-propyl-1H-1,2,3-benzotriazole]	< 75%	> 10 µM	< 75%	> 0.316 µM	–	–	–	–
CC(C)n1ccc2cc(-c3noc(-c4ccccc4F)n3)ccc21 [Compound 387, 5-(2-fluorophenyl)-3-(1-isopropyl-1H-indol-5-yl)-1,2,4-oxadiazole]	–	–	–	–	> 75%	< 10 µM	> 75%	> 0.316 µM
CC(C)Nc1ccc(-c2ncc(-c3ccc4c(c3)nnn4C(C)C)cn2)cc1C#N [Compound 596, 5-(5-(1-isopropyl-1H-benzo[d][1,2,3]triazol-5-yl)pyrimidin-2-yl)-2-(isopropyl-amino)benzonitrile]	–	–	–	–	> 75%	< 10 µM	< 75%	< 0.316 µM
COc1ccccc1-c1nc(-c2ccc3c(ccn3C(C)C)c2)ns1 [Compound 375, 5-[5-(2-methoxy-phenyl)-1,2,4-thiadiazol-3-yl]-1-(propan-2-yl)-1H-indole]	–	–	–	–	< 75%	< 10 µM	> 75%	< 0.316 µM
CC(C)n1nnc2cc(-c3noc(-c4ccccc4Br)n3)ccc21 [Compound 43, 5-(2-bromophenyl)-3-(1-isopropyl-1H-benzo[d][1,2,3]triazol-5-yl)-1,2,4-oxadiazole]	> 75%	< 10 µM	> 75%	< 0.316 µM	–	–	–	–
O=C1CCOc2ccc(-c3nc(-c4ccncc4)no3)cc21 [Compound 57, 6-[3-(pyridin-4-yl)-1,2,4-oxadiazol-5-yl]-3,4-dihydro-2H-1-benzopyran-4-one]	< 75%	> 10 µM	< 75%	> 0.316 µM	–	–	–	–

Source: patent US20230114241A1, “METHODS OF TREATING EPILEPSY USING THE SAME” (Trevena, Inc., priority 2019, published 2023)
